Reference: ChEMBL document CHEMBL5441381, “ASAP - In vitro antiviral effect” (2024)
“And” between values parts separate entries of the source, which are not always exact repeats. Equal values may be shown once.

Assays:
[1] = system: SARS-CoV-2; test: (§1) Functional immunofluorescence assay to measure dose dependent changes in antiviral-drug inhibitory efficacy against hCoV-19/USA-WA1/2020 in iPSC-Pneumocyte cells which are seeded prior to treatment, then infected with hCoV-19/USA-WA1/2020. Cells are fixed with 10 % formaldehyde, washed with PBS, permeabilized with permeabilization buffer, then washed with wash buffer. The cells are incubated with nucleoprotein primary antibody IC7C7. Following primary staining, cells are washed with wash buffer and incubated in a solution of with Alexa fluor 488 and DAPI. Infected and uninfected cells are visualized and analyzed by Gen5 software. The assay has been performed by Icahn School of Medicine at Mount Sinai.; assay type: organism-based, Homo sapiens; conditions: for EC90: Baseline response 0 %, Maximum response 100 %
[2] = system: SARS-CoV-2; test: as §1, with “hCoV-19/USA-WA1/2020 in HeLa-ACE2 cells which” for “hCoV-19/USA-WA1/2020 in iPSC-Pneumocyte cells which”, “prior to drug treatment, then” for “prior to treatment, then”; assay type: organism-based, Homo sapiens
[3] = Severe acute respiratory syndrome coronavirus 2, HeLa-ACE2

CC(C)[C@@H](Nc1ncnc2[nH]c(-c3cnn(C)c3C#N)cc12)c1ccc2c(c1)OCCO2
EC90 ([1]; Severe acute respiratory syndrome coronavirus 2, Pneumocyte, Hill slope -15.978, Maximum measured 108.15 %, Minimum measured 1.229 %, R squared 0.666): 16.2 µM
EC90 ([1]; Severe acute respiratory syndrome coronavirus 2, Pneumocyte, EC90 CI (lower) 0 uM, EC90 CI (upper) 0 uM, Hill slope -11.115, Maximum measured 116.315 %, Minimum measured 8.563 %, R squared 0.796): 6.57 µM
EC50 ([1]; pneumocyte): 14.1 µM and 5.39 µM
EC90 ([2]; Baseline response 0 %, EC90 CI (lower) 0.491 uM, EC90 CI (upper) 1.004 uM, Hill slope -2.446, Maximum measured 109.522 %, Maximum response 100 %, Minimum measured 0 %, R squared 0.979): 4.23 µM
EC50 [2, 3]: 1.73 µM
EC90 ([2]; Severe acute respiratory syndrome coronavirus 2, HeLa-ACE2, Baseline response 0 %, EC90 CI (lower) 0.194 uM, EC90 CI (upper) 2.46 uM, Hill slope -2.403, Maximum measured 109.522 %, Maximum response 100 %, Minimum measured 3.811 %, R squared 0.7): 4.31 µM
EC50 ([2]; hela-ace2): 1.72 µM

CC(C)[C@@H](Nc1ncnc2[nH]cc(C(=O)NC3CC3)c12)c1ccc2c(c1)S(=O)(=O)CCC2
EC50 [2, 3]: 14.4 µM
EC90 ([2]; Severe acute respiratory syndrome coronavirus 2, HeLa-ACE2, Baseline response 0 %, Hill slope -1.207, Maximum measured 103.36 %, Maximum response 100 %, Minimum measured 37.723 %, R squared 0.64): > 20 µM

CC(C)[C@@H](Nc1ncnc2[nH]c(-c3ccc4nnn(C)c4c3)cc12)c1ccc2c(c1)S(=O)(=O)CCC2
EC50 [2, 3]: 3.64 µM
EC90 ([2]; Severe acute respiratory syndrome coronavirus 2, HeLa-ACE2, Baseline response 0 %, Hill slope -0.69, Maximum measured 110.665 %, Maximum response 100 %, Minimum measured 33.895 %, R squared 0.849): > 20 µM

CC(C)[C@@H](Nc1ncnc2[nH]c(-c3cnn(CCC(N)=O)c3)cc12)c1ccc2c(c1)OCCO2
EC50 [2, 3]: > 20 µM
EC90 ([2]; Severe acute respiratory syndrome coronavirus 2, HeLa-ACE2, Maximum measured 112.19 %, Minimum measured 96.19 %): > 20 µM
EC90 ([2]; Severe acute respiratory syndrome coronavirus 2, HeLa-ACE2, Maximum measured 121.913 %, Minimum measured 97.771 %): > 20 µM

CC(C)[C@@H](Nc1ncnc2[nH]c(-c3ccc4cncn4c3)cc12)c1ccc2c(c1)S(=O)(=O)CCC2
EC50 [2, 3]: 7.12 µM
EC90 ([2]; Severe acute respiratory syndrome coronavirus 2, HeLa-ACE2, Baseline response 0 %, Hill slope -0.819, Maximum measured 92.609 %, Maximum response 100 %, Minimum measured 28.375 %, R squared 0.905): > 20 µM

CC(C)[C@@H](Nc1ncnc2[nH]c(-c3cncc(S(C)(=O)=O)c3)cc12)c1ccc2c(c1)S(=O)(=O)CCC2
EC50 [2, 3]: > 20 µM
EC90 ([2]; Severe acute respiratory syndrome coronavirus 2, HeLa-ACE2, Maximum measured 119.816 %, Minimum measured 96.629 %): > 20 µM

CC(C)[C@@H](Nc1ncnc2[nH]c(-c3cnn(CC(N)=O)c3)cc12)c1ccc2c(c1)S(=O)(=O)CCC2
EC50 [2, 3]: > 20 µM
EC90 ([2]; Severe acute respiratory syndrome coronavirus 2, HeLa-ACE2, Maximum measured 127.59 %, Minimum measured 107.301 %): > 20 µM

CNC(=O)c1cc2c(N[C@@H](c3ccc4c(c3)S(=O)(=O)CCC4)C(C)C)ncnc2[nH]1
EC50 [2, 3]: > 20 µM
EC90 ([2]; Severe acute respiratory syndrome coronavirus 2, HeLa-ACE2, Maximum measured 104.869 %, Minimum measured 90.681 %): > 20 µM

CNC(=O)c1cccc(-c2cc3c(N[C@H](c4ccc5c(c4)S(=O)(=O)CCC5)C(C)C)ncnc3[nH]2)c1
EC50 [2, 3]: > 20 µM
EC90 ([2]; Severe acute respiratory syndrome coronavirus 2, HeLa-ACE2, Baseline response 0 %, Hill slope -6.666, Maximum measured 112.086 %, Maximum response 100 %, Minimum measured 84.591 %, R squared 0.065): > 20 µM

CC(C)[C@@H](Nc1ncnc2[nH]c(-c3cnn(CC(=O)N(C)C)c3)cc12)c1ccc2c(c1)OCCO2
EC50 [2, 3]: > 20 µM
EC90 ([2]; Severe acute respiratory syndrome coronavirus 2, HeLa-ACE2, Baseline response 0 %, Hill slope -0.679, Maximum measured 102.904 %, Maximum response 100 %, Minimum measured 72.697 %, R squared 0.733): > 20 µM
EC90 ([2]; Severe acute respiratory syndrome coronavirus 2, HeLa-ACE2, Baseline response 0 %, Hill slope -5.712, Maximum measured 120.313 %, Maximum response 100 %, Minimum measured 86.961 %, R squared 0.099): > 20 µM

CC(C)[C@@H](Nc1ncnc2[nH]c(-c3cnn(CC(=O)N(C)C)c3)cc12)c1ccc2c(c1)S(=O)(=O)CCC2
EC50 [2, 3]: > 20 µM
EC90 ([2]; Severe acute respiratory syndrome coronavirus 2, HeLa-ACE2, Baseline response 0 %, Hill slope -0.117, Maximum measured 98.615 %, Maximum response 100 %, Minimum measured 84.991 %, R squared 0.091): > 20 µM

CC(C)[C@@H](Nc1ncnc2[nH]c(-c3cnn(C)c3C#N)cc12)c1ccc2c(n1)NC(=O)CO2
EC50 [2, 3]: 2.46 µM
EC90 ([2]; Severe acute respiratory syndrome coronavirus 2, HeLa-ACE2, Baseline response 0 %, EC90 CI (lower) 0.524 uM, EC90 CI (upper) 2.251 uM, Hill slope -2.687, Maximum measured 122.922 %, Maximum response 100 %, Minimum measured 8.802 %, R squared 0.907): 5.57 µM

Cn1ncc(-c2cc3c(N[C@@H](c4ccc5c(c4)OCCO5)C(C)(C)C)ncnc3[nH]2)c1C#N
EC50 ([1]; Severe acute respiratory syndrome coronavirus 2, Pneumocyte): 7.67 µM
EC90 ([1]; Severe acute respiratory syndrome coronavirus 2, Pneumocyte, EC90 CI (lower) 1.944 uM, EC90 CI (upper) 9.946 uM, Hill slope -3.954, Maximum measured 131.986 %, Minimum measured 2.165 %, R squared 0.772): 13.4 µM
EC90 ([2]; Baseline response 0 %, EC90 CI (lower) 0.293 uM, EC90 CI (upper) 0.492 uM, Hill slope -2.031, Maximum measured 93.387 %, Maximum response 100 %, Minimum measured 1.413 %, R squared 0.981): 3.3 µM
EC50 [2, 3]: 1.05 µM
EC90 ([2]; Severe acute respiratory syndrome coronavirus 2, HeLa-ACE2, Baseline response 0 %, EC90 CI (lower) 0.423 uM, EC90 CI (upper) 0.632 uM, Hill slope -3.108, Maximum measured 91.316 %, Maximum response 100 %, Minimum measured 1.9 %, R squared 0.978): 2.12 µM
EC50 ([2]; hela-ace2): 1.12 µM

CCNC(=O)c1cc2c(N[C@H](c3ccc4c(c3)OCCO4)C(C)C)ncnc2[nH]1
EC50 [2, 3]: 19.7 µM
EC90 ([2]; Severe acute respiratory syndrome coronavirus 2, HeLa-ACE2, Baseline response 0 %, Hill slope -1.464, Maximum measured 109.949 %, Maximum response 100 %, Minimum measured 49.504 %, R squared 0.869): > 20 µM
